In patent US8815859B2, “Substituted pyrazin-2-ones and substituted 5,6,7,8-tetrahydroquinoxalin-2-ones and methods of use thereof” (Merck Patent GmbH, priority 2008, dated 2014):

Columns and labels:
INS-1 cells = test: Insulin secretion assay in INS-1 cells (glucose at 4.2 mM); assay type: cell-based, rat; conditions: glucose 4.2 mM, 1 h incubation, control = glucose 4.2 mM; for Insulin secretion, % of ctrl at 10 μM of cpd: 10 μM of compound; for Insulin secretion, % of ctrl at 50 μM of cpd: 50 μM of compound
Description: INS-1 cells were cultured in complete medium, RPMI1640 containing 1 mM sodium pyruvate, 50 μM 2-mercaptoethanol, 2 mM glutamine, 10 mM HEPES, 100 IU/mL penicillin, and 100 μg/mL streptomycin (CM), supplemented with 10 mM glucose, and 10% (vol/vol) heat-inactivated fetal calf serum (FCS), as described by Asfari et al. (Endocrinology 130: 167-178, 1992).
INS-1 cells were plated and cultured in 48-well plates. After 2 days of culture, the medium was removed and cells were cultured for 24 h with a medium change to 5 mM glucose, 1% FCS. The cells were then washed with Krebs-Ringer Bicarbonate HEPES buffer (KRBH; 135 mM NaCl; 3.6 mM KCl; 5 mM NaHCO3; 0.5 mM NaH2PO4; 0.5 mM MgCl2; 1.5 mM CaCl2 and 10 mM HEPES; pH 7.4) 0,1% BSA containing 2.8 mM glucose and preincubated for 30 min at 37° C. in the same buffer. The cells were then washed twice and incubated for 1 h in KRBH 0.1% BSA containing 4.2 mM glucose and different concentrations of the tested molecule. Insulin concentration in the collected supernatants was measured with ELISA using rat insulin antibody (Insulin Rat Elit PLUS, cat. ref 10-1145-01).
Insulin secretion results are expressed in % of control (glucose 4.2 mM).
Insulin Secretion in INS-1 Cells (Glucose at 4.2 mM)

melting point [°C]	Structure (SMILES)	Insulin secretion, % of ctrl at 10 μM of cpd (INS-1 cells)	Insulin secretion, % of ctrl at 50 μM of cpd (INS-1 cells)
108 to 110	CCn1ccnc(-c2ccc(S(C)(=O)=O)cc2)c1=O [Example 5-2, 1-ethyl-3-[4-(methylsulfonyl)phenyl]pyrazin-2(114)-one]	–	–
170	CCn1ccnc(-c2ccc(C(=O)O)cc2)c1=O [Example 5-15, 4-(4-ethyl-3-oxo-3,4-dihydropyrazin-2-yl)benzoic acid]	–	–

Further lines, the molecule ahead of its results:

Structure (SMILES)	melting point [°C]	Insulin secretion, % of ctrl at 10 μM of cpd (INS-1 cells)	Insulin secretion, % of ctrl at 50 μM of cpd (INS-1 cells)
CCn1ccnc(-c2ccc3c(c2)OCO3)c1=O [Example 5-5, 3-(1,3-benzodioxol-5-yl)-1-ethylpyrazin-2(1H)-one]	–	158 % of ctrl	204 % of ctrl
CCn1ccnc(-c2ccc3cc[nH]c3c2)c1=O [Example 5-16, 1-ethyl-3-(1H-indol-6-yl)pyrazin-2(1H)-one]	170	–	–
CCn1c2c(nc(-c3ccc(Cl)cc3)c1=O)CCCC2 [Example 9, 3-(4-chlorophenyl)-1-ethyl-5,6,7,8-tetrahydroquinoxalin-2(1H)-one]	110 to 113	343 % of ctrl	371 % of ctrl
CCCn1ccnc(-c2ccccc2)c1=O [Example 9-3, 3-phenyl-1-propylpyrazin-2(1H)-one]	–	145 % of ctrl	182 % of ctrl
CC(C)Cn1ccnc(-c2ccc(Cl)cc2)c1=O [Example 9-7, 3-(4-chlorophenyl)-1-isobutylpyrazin-2(1H)-one]	–	140 % of ctrl	338 % of ctrl
O=c1c(-c2ccc(Cl)cc2)nccn1CC1CC1 [Example 9-8, 3-(4-chlorophenyl)-1-(cyclopropylmethyl)pyrazin-2(1H)-one]	–	172 % of ctrl	333 % of ctrl
